“And” between values parts separate entries of the source, which are not always exact repeats. Identical values can stand only once. Counter-ions that a name gives are not always drawn. Like-named read-outs stand apart in the source and are kept apart here.
Assays:
HepG2 = test: CellTiterGlo cell viability assay, HepG2; format: cell-based; settings: Homo sapiens, HepG2, 72 h
Method in brief: (§1)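 72 h CTG viability; 9-pt, 3.16-fold titration, 198 μM top to 19.8 nM final; duplicates; 0.5% DMSO final; standard growth conditions. Read-out: absolute EC50 and % inhibition at highest concentration.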

MOLT-4 = test: CellTiterGlo cell viability assay, MOLT-4; format: cell-based; settings: Homo sapiens, MOLT-4, 72 h; for inhibition at 198 µM: percentage inhibition at the highest concentration tested, read-out: Top Inh; for EC50: read-out: Ab EC50
Method in brief: as §1

Mia-Pa-Ca-2 = test: CellTiterGlo cell viability assay, Mia-Pa-Ca-2; format: cell-based; settings: Homo sapiens, MIA PaCa-2, Mia-Pa-Ca-2, 72 h
Procedure: A subset of compounds of the invention were assayed for their cytotoxic activity in an array of different solid tumours and haematological malignancies using the following assay.
In vitro viability assay were performed to assess the effects of compounds on cell viability in selected cell lines over 72 h using the CellTiterGlo (CTG, Promega-G7573) assay. The tests were performed in duplicates with treatment of compounds at 9 points, 3.16 folds titration in 96 well plates over ˜72 h. The compound starting concentrations were 198 μM. Cell viability assay using CellTiterGlo in 96-well plate were performed. Compound treatment 72 h, standard growth conditions, duplicates. Compounds were dissolved to 40 mM with thawed […]. Compounds were serially diluted at 3.16 fold in thawed DMSO, and warmed to 37° C. before being dissolved in media (2 μL+200 μL). After compounds were dissolved in media, media containing compounds were warmed to 37° C. in incubator and then compounds in media were added to cell plates (50 μL+50 μL) in duplicates. The compounds' final concentrations were from 198 μM to 19.8 nM. All compound solubilities were checked and recorded again, then the plates were transferred to CO2 tissue culture incubator immediately and incubated for 3 days. DMSO final concentration is 0.5%. The parent nucleoside in each case was tested as a comparator, as was an exemplary ProTide. The drugs of the ProTide class that were tested were as follows:
The following cell lines were tested and are referred to in the Table 1 below:
In Tables 2, 3 and 4, ‘Ab EC50’ refers to the absolute EC50 and ‘Top inhibit’ refers to the percentage inhibition achieved at the highest concentration tested.

HL-60 = test: CellTiterGlo cell viability assay, HL-60; format: cell-based; settings: Homo sapiens, HL-60, 72 h; for EC50: read-out: Ab EC50; for inhibition at 198 µM: percentage inhibition at the highest concentration tested, read-out: Top Inh
Method in brief: as §1

CCRF-CEM = test: CellTiterGlo cell viability assay, CCRF-CEM; format: cell-based; settings: Homo sapiens, 72 h; for EC50: read-out: Ab EC50; for inhibition at 198 µM: percentage inhibition at the highest concentration tested, read-out: Top Inh
Method in brief: as §1

RL = test: CellTiterGlo cell viability assay, RL; format: cell-based; settings: Homo sapiens, 72 h; for EC50: read-out: Ab EC50; for inhibition at 198 µM: percentage inhibition at the highest concentration tested, read-out: Top Inh
Method in brief: as §1

in vitro = settings: human, hepatocytes, pH 7.3
MCF-7 = test: CellTiterGlo cell viability assay, MCF-7; format: cell-based; settings: Homo sapiens, MCF7, 72 h, MCF-7, 72 h; for EC50: read-out: Ab EC50; for inhibition at 198 µM: percentage inhibition at the highest concentration tested, read-out: Top Inhibit
Method in brief: as §1

OVCAR 3 = test: CellTiterGlo cell viability assay, OVCAR 3; format: cell-based; settings: Homo sapiens; for inhibition at 198 µM: OVCAR-3, 72 h, percentage inhibition at the highest concentration tested, read-out: Top Inhibit; for EC50: OVCAR 3, 72 h, read-out: Ab EC50
Method in brief: as §1

HT29 = test: CellTiterGlo cell viability assay, HT29; format: cell-based; settings: Homo sapiens, HT-29, 72 h, HT29, 72 h; for EC50: read-out: Ab EC50; for inhibition at 198 µM: percentage inhibition at the highest concentration tested, read-out: Top Inhibit
Method in brief: as §1

K562 = test: CellTiterGlo cell viability assay, K562; format: cell-based; settings: Homo sapiens, K562, 72 h; for inhibition at 198 µM: percentage inhibition at the highest concentration tested, read-out: Top Inh; for EC50: read-out: Ab EC50
Method in brief: as §1

KG1a cells = test: In vitro cytotoxicity, Annexin V/propidium iodide assay in KG1a cells; format: cell-based
Procedure: The acute myeloid leukaemia (AML) KG1a cell line was maintained in RPMI medium (Invitrogen, Paisley, UK) supplemented with 100 units/mL penicillin, 100 μg/mL streptomycin and 20% foetal calf serum. Cells were subsequently aliquoted (10^5 cells/100 μL) into 96-well plates and were incubated at 37° C. in a humidified normoxic (20% oxygen) or hypoxic (1% or 5% oxygen) atmosphere for 48 h in the presence of clofarabine, or clofarabine diphosphate phosphoramidates of the invention (1×10^−10M-1×10^−6M). In addition, control cultures were carried out to which no drug was added. Cells were subsequently harvested by centrifugation and were analysed by flow cytometry using the Annexin V assay.
Cultured cells were harvested by centrifugation and then resuspended in 195 μL of calcium-rich buffer. Subsequently, 5 μL of Annexin V (Caltag Medsystems, Botolph Claydon, UK) was added to the cell suspension and cells were incubated in the dark for 10 mins prior to washing. Cells were finally resuspended in 190 μL of calcium-rich buffer together with 10 μL of propidium iodide. Apoptosis was assessed by dual-colour immunofluorescent flow cytometry as described previously. Subsequently LD50 values (the dose required to kill 50% of the cells in a culture) were calculated for each nucleoside analogue and diphosphate phosphoramidate.
The data obtained in these experiments were evaluated using one-way ANOVA. All data was confirmed as Gaussian or a Gaussian approximation using the omnibus K2 test. LD50 values were calculated from the non-linear regression and line of best-fit analysis of the sigmoidal dose-response curves. All statistical analyses were performed using Graphpad Prism 6.0 software (Graphpad Software Inc., San Diego, Calif.).
The in vitro drug sensitivity of KG1a cells was assessed using the Annexin V/propidium iodide assay.

RPMI-8226 = test: CellTiterGlo cell viability assay, RPMI-8226; format: cell-based, Human; settings: Homo sapiens, RPMI-8226, 72 h
Method in brief: as §1

[1] = percentage inhibition at the highest concentration tested, read-out: Top Inhibit

Work on `C[C@H](NP(=O)(Oc1ccccc1)OP(=O)(O)OC[C@H]1O[C@@H](n2ccc(N)nc2=O)C(F)(F)C1O)C(=O)OCc1ccccc1` (stereo partly drawn) [Example 8, 2′-Deoxy-2′,2′-difluoro-D-cytidine-5′-O-[phenyl(benzoxy-L-alaninyl)] Diphosphate Triethylammonium Salt] yielded an EC50 (HepG2; absolute EC50, numeric values, read-out: Ab EC50) of 83.1 µM, an inhibition at 198 µM (HepG2; [1]) of 52% and an inhibition at 198 µM (MOLT-4) of 84%. It also gave an EC50 (MOLT-4; absolute EC50, numeric values) of 0.009 µM, an EC50 (Mia-Pa-Ca-2; absolute EC50, read-out: Ab EC50) of 0.07 µM and an inhibition at 198 µM (Mia-Pa-Ca-2; [1]) of 79%. For the same compound, the EC50 (HL-60; absolute EC50, numeric values) was 0.08 µM, the inhibition at 198 µM (HL-60) was 98% and the EC50 (CCRF-CEM; absolute EC50, numeric values) was 0.04 µM. It also gave an inhibition at 198 µM (CCRF-CEM) of 99.9%, an EC50 (RL; absolute EC50, numeric values) of 0.2 µM and an inhibition at 198 µM (RL) of 66.5%. It also gave a half-life (in vitro) of 27 min, an EC50 (MCF-7; absolute EC50, numeric values) of 0.07 µM and an inhibition at 198 µM (MCF-7) of 52%. The inhibition at 198 µM (OVCAR 3) was 48.5%, the EC50 (OVCAR 3; absolute EC50, numeric values) was greater than 198 µM and the EC50 (HT29; absolute EC50, numeric values) was 0.48 µM. It also gave an inhibition at 198 µM (HT29) of 62%, an inhibition at 198 µM (K562) of 29% and an EC50 (K562; absolute EC50, numeric values) greater than 198 µM.

In the case of `CCOC(=O)[C@H](C)NP(=O)(Oc1ccccc1)OP(=O)(O)OC[C@H]1O[C@@H](n2cnc3c(N)nc(Cl)nc32)[C@H](F)C1O` (stereo partly drawn) [Example 2, 2-Chloro-9-(2′-Deoxy-2′-fluoro-β-D-arabinofuranosyl)adenine-5′-O-[phenyl(ethoxy-L-alaninyl)] Diphosphate Triethylammonium Salt], the “change of potency (mean LD50) under hypoxic versus normoxic conditions” value (KG1a cells; 5% oxygen, in words) is reported as “reduction in potency was not observed”, the “Hypoxia Mean LD50” value (KG1a cells; 48 h, hypoxic (5% O2)) is reported as 95.0 nM and the “Mean LD50 (Normoxia Mean LD50)” value (KG1a cells; 48 h, normoxic (20% oxygen)) is reported as 71.0 nM. The “mean LD50” value (KG1a cells; normoxic) was 43.8 nM and 71 nM, the “Ratio Normoxia/Hypoxia” value (KG1a cells; ratio of mean LD50 values) was 74.7 and the inhibition at 198 µM (MOLT-4) was 98%. The EC50 (MOLT-4; Table 3 classes) was less than 0.2 µM, the EC50 (HL-60; Table 3 classes) was less than 0.2 µM and the inhibition at 198 µM (HL-60) was 98%. The EC50 (CCRF-CEM; Table 3 classes) was less than 0.2 µM, the inhibition at 198 µM (CCRF-CEM) was 98.7% and the EC50 (RL; Table 3 classes) was 0.2 to 2 µM. The inhibition at 198 µM (RL) was 65%, the half-life (in vitro) was 20 to 100 min and the EC50 (MCF-7; Table 3 classes) was 0.2 to 2 µM. The inhibition at 198 µM (MCF-7) was 54%, the EC50 (RPMI-8226; Table 3 classes, read-out: Ab EC50) was 5 to 10 µM and the inhibition at 198 µM (RPMI-8226; percentage inhibition at the highest concentration tested, read-out: Top Inh) was 92%. It also gave an inhibition at 198 µM (OVCAR 3) of 48%, an EC50 (OVCAR 3; Table 3 classes) greater than 10 µM and an EC50 (HT29; Table 3 classes) of 0.2 to 2 µM. The inhibition at 198 µM (HT29) was 62%, the inhibition at 198 µM (K562) was 29% and the EC50 (K562; Table 3 classes) was greater than 10 µM.
